The test system of series [1] is PDE IV. Conditions: PDE IV vs other PDE isozymes; cited from earlier work.
For a further series, the system named is TNF-α. Nature of the series: TNF-α Production Inhibition Test in LPS-treated U 937 cells. It counts as cell-based. Conditions: U 937 cells differentiated with PMA; LPS 10 ng/ml, 6 hours; human TNF-α ELISA. Here is the method:
Human promonocytic leukemia cells (U 937 cells, 1×10^5 cells/400 μl) were inoculated on a 24-well culture plate. By use of an RPMI 1640 culture liquid (supplemented with 10% FCS) containing 50 nM PMA, the cells were incubated for 72 hours, to thereby induce differentiation into monocyte/macrophage (see Sarkiz Daniel-Issakani, Allem M. Spiegel and Berta Strulovici (1989), J. Biol. Chem. 264, p20240-20247). Subsequently, the culture supernatant was discarded, and an RPMI 1640 culture liquid (supplemented with 10% FCS) containing 10 ng/ml of LPS (lipopolysaccharide; E. coli, 0111:B4) was added. Each compound was added one hour before the LPS treatment, so as to achieve concentrations of 100 μM, 10 μM, 1 μM, and 0.1 μM. Six hours after addition of LPS, the quantity of produced TNF-α in the supernatant was measured by use of a human TNF-α ELISA kit (Amersham, code RPN 2758), For respective doses of each compound, % control was calculated, wherein the quantity of TNF-α produced when LPS treatment was performed and the compound was not added was considered 100%. Further, based on primary regression curves, there were calculated IC50 values in terms of TNF-α production inhibitory activity for respective compounds.

Series [2] deals with PDE IV. Nature of the series: PDE Inhibitory Activity Test, PDE IV. Format: biochemical. The conditions noted are these: PDE IV from human histocytic lymphoma (U-937); substrate 1 μM; 20 min at 30° C.
The test system of another series is PDE III. In words: PDE Inhibitory Activity Test, PDE III. It counts as biochemical. The conditions noted are these: human platelet PDE III; substrate 1 μM; 20 min at 30° C.
The target of the next series is T1, PDE V (Homo sapiens, UniProt O76074).
T1 construct: isolated from human tissue and purified in accordance with the method described in literature; from tissue; host or cells: human platelets
Nature of the series: PDE Inhibitory Activity Test, PDE V. It counts as biochemical. The conditions noted are these: human platelet PDE V; substrate 1 μM; 20 min at 30° C. As for the experimental part: A variety of PDE isozymes shown below were isolated from human tissue and purified in accordance with the method described in literature.
H. Hidaka, et al., Bioph. Bioch. Acta, (1976), 429, p485
C. D. Nicholson, et al., Trends Pharmacol. Sci., (1991), 12, p19.
The PDE activity was determined through use of a modified two-step assay method described by Hidaka et al. (Bioph. Bioch. Acta., (1976), 429, p485),
Briefly, [^3 H]cAMP and [^3 H]cGMP are hydrolyzed by their respective PDE isozymes to form [^3 H]5'-AMP and [^3 H]5'-GMP, respectively. Subsequently, [^3 H]5^1 -AMP and [^3 H]5^1 -GMP are transformed into [^3 H]adenosine and [^3 H]guanosine, respectively, due to the action of nucleotidases. Unreacted [^3 H]cAMP and [^3 H]cGMP are removed, causing them to bond to ion exchange resin, and the quantity of eluted [^3 H]adenosine or [^3 H]guanosine was counted in a liquid scintillation counter.
The diluted enzyme solution contains 50 mM Tris-HCl (pH 8.0), 5 mM MgCl2, and 50 μg of bovine serum albumin, wherein the concentrations represent final concentrations. The substrate concentration is 1 μM. The concentration of each test compound varies between 0.1 nM and 100 μM. Each test sample is incubated for 20 minutes at 30° C., and the PDE reaction is terminated by boiling for 2 minutes. The nucleotidase reaction was induced by adding snake venom nucleotidase to the above-described reaction mixture and incubating the resultant mixture for 20 minutes at 30° C.

The conditions of series [3]: in vivo; cited from earlier work.
Another series concerns PDE. The conditions noted are these: cited from earlier work.

The text below walks through data of patent US5935977A, “Substituted vinyl pyridine derivative and drugs containing the same” (SS Pharmaceutical Co., Ltd., priority 1996, dated 1999).

Regarding `CCCCOc1cc(CC2CNC(=O)N2)ccc1OC` (racemic) [Ro20-1724], the “potency at PDE IV relative to other PDE isozymes” value with PDE IV [1] is 100 times.
With `COc1cnc(/C(C#N)=C/c2c(Cl)cncc2Cl)cc1O[C@@H]1C[C@H]2CC[C@@H]1C2` (relative stereo) [Example 21, (Z)-3-(3,5-Dichloro-4-pyridyl)-2-[5-methoxy-4-(exo-2-norbornyloxy)-2-pyridyl]propenenitrile], the IC50 in the series on TNF-α was 13.3 µM.
In the case of `COc1cnc(/C(C#N)=C/c2c(Cl)cncc2Cl)cc1OC1CCCC1` [Example 1, (Z)-2-(4-cyclopentyloxy-5-methoxy-2-pyridyl)-3-(3,5-dichloro-4-pyridyl)propenenitrile], the IC50 with PDE IV [2] is 0.0026 µM; in the series with PDE III, 10 µM; at PDE V, greater than 100 µM; in the series on TNF-α, 10.2 µM.
As for `COc1cnc(/C(C#N)=C/c2ccncc2)cc1OC1CCCC1` [Example 4, (Z)-2-(4-Cyclopentyloxy-5-methoxy-2-pyridyl)-3-(4-pyridyl)propenenitrile], the IC50 in the series on TNF-α turned out to be 7.6 µM.
Same read-out and setting: under `COc1cnc(/C(C#N)=C/c2ccnc3ccccc23)cc1OC1CCCC1` [Example 10, (Z)-2-(4-Cyclopentyloxy-5-methoxy-2-pyridyl)-3-(4-quinolyl)propenenitrile] stands 10 µM.
In turn, `COc1cnc(/C(C#N)=C/c2c(OC)cncc2OC)cc1OC1CCCC1` [Example 11, (Z)-2-(4-Cyclopentyloxy-5-methoxy-2-pyridyl)-3-(3,5-dimethoxy-4-pyridyl)propenenitrile] showed a 50% inhibitory concentration (IC50) in the series with TNF-α of 5.5 µM.
As for `COc1cnc(/C(C#N)=C/c2c(Cl)cncc2Cl)cc1OCCc1ccccc1` [Example 14, (Z)-3-(3,5-Dichloro-4-pyridyl)-2-(5-methoxy-4-phenethyloxy-2-pyridyl)propenenitrile], the IC50 in the series on PDE IV [2] was 0.0059 µM; in the series on PDE III, greater than 100 µM; against PDE V, 5.6 µM.
For `COc1cnc(/C(C#N)=C/c2c(Cl)cncc2Cl)cc1OCCCc1ccccc1` [Example 15, (Z)-3-(3,5-Dichloro-4-pyridyl)-2-[5-methoxy-4-(3-phenylpropyloxy)-2-pyridyl]propenenitrile], the IC50 in the series on PDE IV [2] was found to be 0.0048 µM; in the series with PDE III, 91 µM; against PDE V, 56 µM.
For the compound `CCCCOc1cc(/C(C#N)=C/c2c(Cl)cncc2Cl)ncc1OC` [Example 16, (Z)-2-(4-Butyloxy-5-methoxy-2-pyridyl)-3-(3,5-dichloro-4-pyridyl)propenenitrile], the IC50 came to 0.015 µM in the series with PDE IV [2], 15 µM in the series with PDE III, 31 µM on PDE V and 13.1 µM in the series with TNF-α.
Take `CCC(CC)Oc1cc(/C(C#N)=C/c2c(Cl)cncc2Cl)ncc1OC` [Example 17, (Z)-3-(3,5-Dichloro-4-pyridyl)-2-[4-(1-ethylpropyloxy)-5-methoxy-2-pyridyl]propenenitrile]: the IC50 in the series on PDE IV [2] was 0.036 µM; in the series on PDE III, greater than 100 µM; against PDE V it was greater than 100 µM.
For `CCOc1cnc(/C(C#N)=C/c2c(Cl)cncc2Cl)cc1OC1CCCC1` [Example 18, (Z)-2-(4-Cyclopentyloxy-5-ethoxy-2-pyridyl)-3-(3,5-dichloro-4-pyridyl)propenenitrile], the IC50 was determined as 0.036 µM in the series with PDE IV [2], 18 µM in the series on PDE III and 12 µM on PDE V.
With `COc1cnc(/C(C#N)=C/c2c(Cl)cncc2Cl)cc1OC1Cc2ccccc2C1` [Example 19, (Z)-3-(3,5-Dichloro-4-pyridyl)-2-[4-(2-indanyloxy)-5-methoxy-2-pyridyl]propenenitrile], the IC50 with PDE IV [2] was 0.00065 µM; with PDE III, greater than 100 µM; against PDE V, greater than 100 µM; in the series on TNF-α, 2.9 µM.
On to `COc1cnc(/C(C#N)=C/c2c(Cl)cncc2Cl)cc1OC1CCOC1` (centres unmarked) [Example 20, (Z)-3-(3,5-Dichloro-4-pyridyl)-2-[5-methoxy-4-(tetrahydro-3-furanyloxy)-2-pyridyl]propenenitrile], for which the IC50 in the series with PDE IV [2] is 0.011 µM; in the series on PDE III, 56 µM; against PDE V, greater than 100 µM; with TNF-α, 7.1 µM.
As to `COc1ccc(C2CNC(=O)C2)cc1OC1CCCC1` (centres unmarked) [Rolipram, reference compound], the IC50 with PDE IV [2] was 5 µM; with PDE III, greater than 100 µM; in the series with TNF-α it was 100 µM.
`Cn1c(=O)c2[nH]cnc2n(C)c1=O` [theophylline]: the “safety range” value in series [3] is “rather narrow”. The “PDE inhibition selectivity” value with PDE is “inhibits PDE non-selectively”.

One may read the IC50 as the concentration at which inhibition is half-maximal. Low values mean greater potency in that assay, high ones weaker potency in that assay.
